Results taken from patent US20030229007A1, “Form of human renin and its use as a target in treatments for cardiac ischemia and arrhythmia” (priority 2002, published 2003).
Structures can show the parent of a compound that is named as a salt. Square brackets hold non-standard residues; d marks the D form. Peptide text beside a SMILES is read from it. * marks the point of attachment. Sta = CC(C)C[C@H](N)[C@@H](O)CC(=O)O; Isovaleryl = CC(C)CC(=O)*

What was measured:
[1] = test system: human cardiac synaptosomes (sympathetic nerve endings); test: Ischemic NE release from human cardiac synaptosomes incubated with angiotensinogen; type: cell-based; conditions: for effect on angiotensinogen-induced increase in ischemic NE release: angiotensinogen 400 nM
Experimental: (§1) Preparation of cardiac synaptosomes. Atrial specimens were freed from fat and connective tissue and minced in ice-cold 0.32 M sucrose containing 1 mM EGTA, pH 7.4, and 1 mM pargyline, to prevent enzymatic destruction of synaptosomal NE. Synaptosomes were isolated as previously described (Imamura et al., Circ. Res. 1995, 77:206-210). Briefly, minced tissue was digested with 120 mg collagenase (Type II, Worthington Biochemicals, Freehold, N.J.) per gm wet heart weight for 1 hr at 37° C. After low speed centrifugation (10 min at 120 g), the resulting pellet was suspended in 10 vol of 0.32 M sucrose and homogenized with a Teflon/glass homogenizer. The homogenate was spun at 650 g for 10 min and the pellet rehomogenized and respun. The pellet containing cellular debris was discarded, and the supernatants from the last two spins were combined and equally subdivided into 4 to 8 tubes and recentrifuged for 20 min at 20,000 g at 4° C. This pellet, which contained cardiac synaptosomes, was resuspended either in HEPES-buffered saline (HBS; 500 μl, normoxic conditions) or in glucose-free HBS which contained the reducing agent sodium dithionite (500 μl, ischemic conditions), and incubated in the absence or presence of angiotensinogen (for 1 hour) or other pharmacological agents for 20 min in a water bath at 37° C. prior to ischemia (see below). HBS contained 50 mM HEPES, pH 7.4, 144 mM NaCl, 5 mM KCl, 1.2 mM CaCl2, 1.2 mM MgCl2, 10 mM glucose. Each suspension functioned as an independent sample and was used only once. In every experiment, one sample was untreated (control, basal NE release).
Induction of ischemia. Ischemia was induced by incubating either atrial fragments or synaptosomes for 70 min in glucose-free KHS (atrial tissue) or HBS (synaptosomes) bubbled with 95% N2 and 5% CO2, containing the reducing agent sodium dithionite (3 mM; PO2 ˜0 mm Hg, pH ˜7.3; ischemic NE release) (Hatta et al. J. Pharmacol Exp. Ther. 1997, 283:494-500). […]

[2] = test system: human cardiac synaptosomes (sympathetic nerve endings); test: Ischemic NE release from synaptosomes isolated from human right atrium; type: cell-based; conditions: 70 min ischemia
Experimental: as §1
Induction of ischemia. Ischemia was induced by incubating either atrial fragments or synaptosomes for 70 min in glucose-free KHS (atrial tissue) or HBS (synaptosomes) bubbled with 95% N2 and 5% CO2, containing the reducing agent sodium dithionite (3 mM; PO2 ˜0 mm Hg, pH ˜7.3; ischemic NE release) (Hatta et al. J. Pharmacol Exp. Ther. 1997, 283:494-500). Matched control fragments and synaptosomes were incubated for an equivalent length of time with oxygenated KHS and HBS, respectively (normoxic NE release). When drugs were used, they were continued throughout the entire normoxic and ischemic periods.
Norepinephrine assay. Incubating media were assayed for NE by high pressure liquid chromatography with electrochemical detection (Hatta et al. J. Pharmacol Exp. Ther. 1997, 283:494-500). Perchloric acid and EDTA were added to samples to achieve final concentrations of 0.01 N and 0.025%, respectively. The NE present in the effluent was adsorbed on acid-washed alumina adjusted at pH 8.6 with Tris-2% EDTA buffer, and then extracted into 150 μl of 0.1 N perchloric acid. These final sample aliquots were injected onto a 3 μm ODS reverse-phase column (3.2×100 mm, Bioanalytical System, West Lafayette, Ind.) with an applied potential of 0.65 V. The mobile phase consisted of monochloroacetic acid (75 mM), sodium EDTA (0.5 mM), sodium octylsulfate (0.5 mM) and acetonitrile (1.5%) at pH 3.0. The flow rate was 1.0 ml/min. No NE breakdown occurred during the 70-min ischemic period. Dihydroxybenzylamine was added to each sample as an internal standard prior to alumina extraction and used for calculation of the recovery during the extraction procedure. This recovery was 77% or better. The detection limit was approximately 0.2 pmol.

[3] = test system: human right atrial tissue; test: NE release from human right atrium incubated in ischemic conditions; type: cell-based; conditions: 70 min ischemia
Source text: Source of human cardiac tissue. Specimens of right atrium (i.e., surgical waste tissue) were obtained from 34 patients undergoing cardiopulmonary bypass [29 males and 5 females, age 64.9±1.6 years; coronary artery bypass grafting (CABG) 30, valve replacement 4], following a protocol approved by the Institutional Review Board. Eight of the 30 CABG patients were chronically treated with β-adrenoceptor blocking agents. […] All patients chronically treated with ACE inhibitors were excluded from the study. At the time of surgery, a piece of atrial appendage measuring ˜1 cm^3 was removed from the atriotomy site.
Incubation of atrial tissue. Atrial specimens were immediately transported to the laboratory in ice-cold oxygenated Krebs-Henseleit solution (KHS) of the following composition (mM): NaCl 118.2, KCl 4.83, CaCl2 2.5, MgSO4 2.37, KH2PO4 1.0, NaHCO3 25, and glucose 11.1. After removal of fat and connective tissue, specimens were divided into several fragments (each weighing 24.5±1.1 mg, wet weight, measured at the end of incubation). Each fragment was incubated for 15 min at 37° C. in 2 ml of KHS gassed with 95% O2 and 5% CO2 (Po2 ˜550 mm Hg, pH ˜7.4) containing the monoamine oxidase inhibitor pargyline (1 mM). Following the 15-min stabilization period, fragments were incubated for an additional 20 min in oxygenated KHS in the absence or presence of pharmacological agents. […]

[4] = test system: human right atrial tissue; conditions: as previously reported (Hatta et al. 1997); cited from earlier work

In the case of `CC(C)C[C@H](O)[C@H](O)[C@H](CC1CCCCC1)NC(=O)[C@@H](CC(=O)N(CC(=O)N(C)CCc1ccccn1)CC1CCCCC1)Cc1csc(N)n1` [BILA 2157BS], the “effect on angiotensinogen-induced increase in ischemic NE release” value ([1]; 100 nM) is reported as “prevented”, the “suppression of the enhancement in NE release elicited by ischemia” value ([2]; 100 nM) is reported as ~70% and the “decrease in NE release” value ([3]; 30 nM) is reported as ~60%.

In the case of `CNCCCN1c2ccccc2CCc2ccccc21` [DMI, desipramine hydrochloride], the inhibition at 0.3 µM ([2]; Homo sapiens, 70 min, 300 nM) is listed as ~50% and the “effect on ischemic NE release from atrial tissue” value [4] is listed as “inhibited”.

With `CCN(c1nc(N)c(C(=O)N=C(N)N)nc1Cl)C(C)C` [EIPA, 5-(N-ethyl-N-isopropyl)-amiloride] the “inhibition of ischemic NE release” value ([2]; 30 μM) was ~50%.

For `C[C@H](N[C@@H](CCc1ccccc1)C(=O)O)C(=O)N1CCC[C@H]1C(=O)O` [enalaprilat, Enalaprilat], the “effect on angiotensinogen-induced increase in ischemic NE release” value ([1]; 3 μM) was “prevented” and the “reduction of the increase in NE release caused by ischemia” value ([2]; 3 μM) was ~80%.

For `CC(C)CC(=O)N[C@H](C(=O)N[C@H](C(=O)N[C@@H](CC(C)C)[C@@H](O)CC(=O)N[C@@H](C)C(=O)N[C@@H](CC(C)C)[C@@H](O)CC(=O)O)C(C)C)C(C)C` [pepstatin-A] (Isovaleryl-VV[Sta]A[Sta]-OH), the “suppression of the enhancement in NE release elicited by ischemia” value ([2]; 30 μM) was ~70% and the “decrease in NE release” value ([3]; 30 μM) was ~70%.

B1: angiotensinogen: Human plasma angiotensinogen, renin substrate, purchased from Sigma-Aldrich (protein, UniProt P01019 25-476, looked up)
Angiotensinogen: DRVYIHPFHLVIHNESTCEQLAKANAGKPKDPTFIPAPIQAKTSPVDEKALQDQLVLVAAKLDTEDKLRAAMVGMLANFLGFRIYGMHSELWGVVHGATVLSPTAVFGTLASLYLGALDHTADRLQAILGVPWKDKNCTSRLDAHKVLSALQAVQGLLVAQGRADSQAQLLLSTVVGVFTAPGLHLKQPFVQGLALYTPVVLPRSLDFTELDVAAEKIDRFMQAVTGWKTGCSLMGASVDSTLAFNTYVHFQGKMKGFSLLAEPQEFWVDNSTSVSVPMLSGMGTFQHWSDIQDNFSVTQVPFTESACLLLIQPHYASDLDKVEGLTFQQNSLNWMKKLSPRTIHLTMPQLVLQGSYDLQDLLAQAELPAILHTELNLQKLSNDRIRVGEVLNSIFFELEADEREPTESTQQLNKPEVLEVTLNRPFLFAVYDQSATALHFLGRVANPLSTA
With B1 the “increase in ischemic NE release” value ([1]; 400 nM angiotensinogen, 70 min ischemia) was ~70%.
